# Data: patent publication US20260165990A1, “Treatment of Tartaric Acid Toxicity in Dogs with Probenecid” (priority 2022, published 2026)
# Read-outs that look alike come from different tables or passages of the source.
# Legend:
# MDCK cells [1] = system: MDCK cells
# Protocol: MDCK cells were maintained in EMEM media supplemented with 10% Fetal Bovine Serum and 1% streptomycin. […] Both cell lines were incubated at 37° C. and 5% CO2 until confluency.
# For experiments, both cell lines were incubated in triplicate with an endpoint of 72 hours. Treatment concentrations were made using a stock solution of 100 mmol/L potassium bitartrate in complete media. Final treatment concentrations of 5, 10, 25, 50, 75, and 100 mmol/L were reached via serial dilution. To mimic physiological pH of 7.4, 10N NaOH and 10M HCl were used. A positive control of 0.005% hydrogen peroxide was also used.
# Release of lactate dehydrogenase (LDH) from the cytosol in response to plasma membrane damage is a common measure of necrotic cell death and was measured utilizing the LDH-Cytotoxicity assay kit according to the manufacturer's protocol (BioVision, Milpitas, CA). Briefly, media from treated MDCK or HK-2 cells was removed and samples placed into a 96 well plate in duplicate. A mixture of WST kit reagent and buffer in a 25:1 ratio was then added to each well. The plate was covered and allowed to incubate at room temperature for 30 minutes. Absorbance was read at 450 nm. To normalize for potential cell confluency differences, cells were solubilized with 0.05% Triton-X, and cellular protein was analyzed using the bicinchoninic acid (BCA) method.
# MDCK cells [2] = assay: Probenecid prevention of tartaric acid induced LDH release in MDCK cells
# Protocol: When conducting experiments with probenecid (Sigma Aldrich, St. Louis, MO), a stock solution of 2 mmol/L in complete media was made at pH 7.4, then mixed with either complete media or 100 mmol/L tartaric acid to yield both solutions of 1 mmol/L and 500 μmol/L and solutions of 1 mmol/L probenecid+50 mmol/L potassium bitartrate, as well as 500 μmol/L+50 mmol/L potassium bitartrate. MDCK cells were treated and allowed to incubate for 72 hours.
# (§1) Absorbance was read at 450 nm.
# As TTA is a common, dietary dicarboxylic acid, it is believed to be renally excreted via organic anion-handling transporters. Therefore, to assess the role of OAT-mediated TTA transport, MDCK cells were exposed to 50 mM tartaric acid alone or in combination with 1 mM or 0.5 mM probenecid; a known OAT-1 inhibitor.
# [3] = system: MDCK cells transfected with human OAT-4; assay: LDH release in hOAT-4 transfected MDCK cells; format: cell-based, canine; conditions: 50 mM TTA, 72 h
# Protocol: In order to assess the role that OAT transporters may play in tartaric acid induced nephrotoxicity, MDCK cells were transfected with human OAT-4 and treated with 50 mmol/L of potassium bitartrate. Human (h)OAT-4 cDNA (GenScript, Piscataway, NJ) was purchased and transformed using E. coli (New England Biolabs, Ipswich, MA) to produce higher amounts of cDNA to be used in transfection. E. coli was transformed per New England Biolab's protocol. Briefly, E. coli was thawed, plasmid cDNA was added, and then mixed with manufacturer's SOC solution. The mixture was allowed to incubate at 37° C. for 60 minutes, and was then spread on LB agar ampicillin-100 plates (Sigma Aldrich, St. Louis, MO) and allowed to incubate for 24 hours at 37° C. Colonies were then collected, placed into a solution of LB […] ampicillin-100 broth, and incubated overnight.
# Human OAT-4 plasmid preparation with the amplified E. coli was completed using the PureYield Plasmid Miniprep System (Promega, Madison, WI) following manufacturers protocol. Briefly, 4 mL of culture was collected and centrifuged. The supernatant was removed, and the cell pellet was resuspended in 600 μL 1xPBS. […] The concentration of the elucidated cDNA was then measured using a NanoDrop spectrophotometer (yielding cDNA ranging from 264.8 to 762.8 ng/uL). […]
# as §1
# canines = conditions: grape ingestion, tartaric acid equivalent; cited from earlier work
# HK-2 cells = assay: LDH release cytotoxicity of tartaric acid in HK-2 cells; format: cell-based, human
# Source text: as §1
# MDCK cells [4] = assay: ATP depletion in MDCK cells (CellTiter Glo assay); format: cell-based, canine
# Protocol: TTA concentration groups were compared to media alone (Neg.) using one-way ANOVA followed by a Dunnett's post-hoc test. (n=3/group). * p<0.05; ** p<0.005; *** p<0.001; **** p<0.0001.
# 500 μM probenecid (PBD) protected MDCK cells from 25 mM and 50 mM TTA-induced ATP depletion at 12 & 72 h, assessed using a CellTiter Glo® assay. Groups were compared using one-way ANOVA followed by a Tukey's post-hoc test. (n=3); ***p<0.001, **** p<0.0001 compared to media; $p<0.05 compared to 25 or 50 mM TTA alone.
# ATP depletion was determined in MDCK cells as another measure of cytotoxicity of TTA. The results shown in FIG. 3 indicate that ATP depletion was both time-and dose-dependent. In FIG. 4, it can be observed that dose-response curves were obtained for TTA-induced ATP depletion, and the cells became more sensitive at each increasing dose, and with increasing time of exposure to TTA. This established the MDCK cell culture model as a valid predictor of TTA-induced renal pathology in canine kidney in vitro.
# dogs = conditions: cited from earlier work
# renal tubular excretion = conditions: canines, effect plateaus at this dose; cited from earlier work
compound,measurement,setting,value
"O=C(O)C(O)C(O)C(=O)O (stereo not drawn) [TTA, tartaric acid]",LDH release,"MDCK cells [1]; MDCK cells, 10 mM, 72 h, pH 7.4",1.769
same,LDH release,"MDCK cells [1]; MDCK cells, 25 mM, 72 h, pH 7.4",1.472
same,LDH release,"MDCK cells [1]; MDCK cells, 50 mM, 72 h, pH 7.4",1.646
same,LDH release,"MDCK cells [1]; MDCK cells, 75 mM, 72 h, pH 7.4",2.540
same,LDH release,"MDCK cells [1]; MDCK cells, 100 mM, 72 h, pH 7.4",1.778
same,lowest concentration with significant increase in TTA-induced cytotoxicity,"MDCK cells [1]; MDCK cells, 72 h of exposure, vs controls",10 mmol/L
same,LDH release,"MDCK cells [1]; non-transfected MDCK cells, 50 mM TTA, 72 h (transfection experiment)",2.807
same,LDH release,"MDCK cells [2]; 50 mM TTA alone, 72 h (probenecid experiment)",4.302
same,LDH release,[3],1.213
same,ingested dose (as tartaric acid) resulting in significant nephrotoxicity,canines,196 to 1484 mg/kg
same,LDH release,"HK-2 cells; HK-2 cells, 72 h, pH 7.4, 5-100 mmol/L, vs negative control",no statistically significant increase in LDH release
same,"TTA-induced LDH release, HK-2 vs. MDCK cells","HK-2 cells; same exposure concentrations across species, two-way ANOVA",no significant difference
same,ATP depletion,MDCK cells [4]; function of time and dose of TTA exposure,induced significant ATP depletion
"CCCN(CCC)S(=O)(=O)c1ccc(C(=O)O)cc1 [probenecid, 4-(dipropylsulfamoyl)benzoic acid]",prevention of TTA-induced cytotoxicity,MDCK cells [2]; 500 μM and 1 mM probenecid,completely prevented
same,LDH release,"MDCK cells [2]; 0.5 mM probenecid + 50 mM TTA, 72 h",1.658
same,LDH release,"MDCK cells [2]; 1 mM probenecid + 50 mM TTA, 72 h",1.518
same,cell death by probenecid alone,"MDCK cells [2]; probenecid alone at 0.5 mM or 1 mM, 72 h",did not induce significant cell death
same,LD50,dogs; IV,270 mg/kg
same,therapeutic index,dogs,high
same,oral dose enough to completely suppress renal tubular excretion,renal tubular excretion,6 mg/kg
same,protection from TTA-induced ATP depletion,"MDCK cells [4]; 500 μM probenecid, 25 mM and 50 mM TTA, 12 & 72 h",protected
